# Patent US9695132B2, “Heteroaryl compounds and uses thereof” (Celgene CAR LLC, priority 2013, dated 2017)
# What was measured:
# pFGFR4 in Huh7 cells = pFGFR4 in Huh7 cells (Homo sapiens (Human), UniProt P22455); experiment: FGFR4 signaling, Meso Scale assay (MSD), Method B, Huh7
# Method: Huh7 cells were grown in DMEM (Invitrogen, Carlsbad, Calif.) supplemented with 10% FBS (Invitrogen) and 1% Penicillin-Streptomycin (P/S, Lonza, Walkersville, Md.).
# For the MSD and ELISA assays, total FGFR4 antibodies were obtained from R&D Systems (Minneapolis, Minn.) and used at 1:500. […] Phospho-FGFR antibodies were obtained from Cell Signaling (Danvers, Mass.) or R&D Systems and used at 1:1000. The phopho-FGFR antibody from Cell Signaling was used for immunoblotting, whereas the phopho-FGFR antibody from R&D was used for MSD and ELISA assays. Secondary antibodies were used at 1:10,000. The goat anti-mouse IgG IRDye 800CW antibody was obtained from LiCor Biosciences (Lincoln, Nebr.) and the goat anti-rabbit IgG Alexa Fluor 680 was obtained from Invitrogen. The anti-rabbit Sulfo-tag and anti-streptavidin Sulfo-tag antibodies was obtained from Meso Scale Discovery (Gaithersburg, Md.), and were used at 1:1000 and 1:5000, respectively.
# After treatment, the cells were washed with cold PBS (Invitrogen), and were immediately lysed by freeze/thawing 3× in 32 μL of cold Cell Extraction Buffer (Invitrogen), which was supplemented with Complete Protease inhibitors (Roche) and PhosphoSTOP (Roche) phosphatase inhibitors.
# MSD plates (Meso Scale Discovery) were coated with total FGFR-4 antibodies overnight at 4° C. A lysate (25 μL) was added to the MSD plate overnight at 4° C. The MSD signals were obtained by incubating with a phospho-FGFR antibody (R&D Systems) and an anti-rabbit sulfo-tag antibody (Meso Scale), for 2 hr at room temperature. […] The data was fitted using a sigmoidal curve analysis program (Graph Pad Prism version 5) with variable Hill slope to determine the EC50 values.
# FGFR4-WT = FGFR4-WT (Homo sapiens (Human), UniProt P22455); experiment: Omnia assay for potency assessment against FGFR4 enzyme; assay type: biochemical; conditions: [Y10-Sox]=10 uM
# Method: A 10× stock solution of FGFR4-WT (PR4380C), (from Invitrogen, Carlsbad, Calif.) corresponding to method a in Table 7, was prepared as described below. Alternatively, a 10× stock solution of FGFR4-WT (F01-11G), (SignalChem, Richmond, BC) corresponding to method b in Table 7, was prepared as described below. A solution of 1.4×ATP (AS001A) and 5× Tyr-Sox conjugated peptide substrate (KNZ3101) were prepared in 1× kinase reaction buffer consisting of 20 mM Tris, pH 7.5, 5 mM MgCl2, 1 mM EGTA, 5 mM β-glycerophosphate, 5% glycerol (10× stock, KB002A) and 0.2 mM DTT (DS001A). […] The serially diluted compounds were prepared on a Tecan EVO100. A second addition of 10 μl of Tyr-Sox FGFR4 substrate was added to each well and the kinase reactions were started with the addition of 35 μL of 1.4×ATP. The reactions were monitored every 71 seconds for 240 minutes at λex360/λem485 in a Synergy plate reader from BioTek (Winooski, Vt.).
# [1] = method a: [FGFR4-WT]=10 nM (Invitrogen), [ATP]=300 uM
# [2] = method b: [FGFR4-WT]=2.5 nM (SignalChem), [ATP]=250 uM
# Chain of pFGFR4 in Huh7 cells (P22455 22-802): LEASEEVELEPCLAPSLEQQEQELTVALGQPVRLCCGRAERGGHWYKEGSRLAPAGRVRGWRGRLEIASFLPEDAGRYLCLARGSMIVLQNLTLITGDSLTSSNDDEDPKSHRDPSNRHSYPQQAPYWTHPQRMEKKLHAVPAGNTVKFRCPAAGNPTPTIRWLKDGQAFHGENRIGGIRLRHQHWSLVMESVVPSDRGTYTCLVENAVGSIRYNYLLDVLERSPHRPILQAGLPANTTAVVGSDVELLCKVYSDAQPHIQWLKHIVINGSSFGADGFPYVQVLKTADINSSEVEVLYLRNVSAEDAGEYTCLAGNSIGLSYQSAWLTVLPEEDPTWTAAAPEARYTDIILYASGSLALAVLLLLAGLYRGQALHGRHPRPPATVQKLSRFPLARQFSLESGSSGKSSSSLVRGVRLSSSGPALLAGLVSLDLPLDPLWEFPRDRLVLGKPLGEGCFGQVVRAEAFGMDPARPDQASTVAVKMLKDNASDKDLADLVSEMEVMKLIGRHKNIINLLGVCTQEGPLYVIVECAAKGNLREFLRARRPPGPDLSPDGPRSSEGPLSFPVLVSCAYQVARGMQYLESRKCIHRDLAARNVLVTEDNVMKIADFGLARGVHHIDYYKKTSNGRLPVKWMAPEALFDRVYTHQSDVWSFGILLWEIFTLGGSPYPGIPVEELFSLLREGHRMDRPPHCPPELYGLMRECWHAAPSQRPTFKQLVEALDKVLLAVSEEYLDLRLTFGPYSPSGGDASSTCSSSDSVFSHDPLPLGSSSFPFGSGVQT
# Chain of FGFR4-WT (P22455 22-802): as above
Structure (SMILES),EC50 (pFGFR4 in Huh7 cells) [µM],IC50 (FGFR4-WT; [1]) [µM],IC50 (FGFR4-WT; [2]) [µM]
C=CC(=O)NC1CCCCC1Nc1ncc2c(n1)N(CCF)C(=O)N(c1c(Cl)c(OC)cc(OC)c1Cl)C2 (racemic) [Compound I-106],0.101 to 0.5,–,–
C=CC(=O)NC1CN(C)CC1Nc1ncc2c(n1)N(C)C(=O)N(c1c(Cl)c(OC)cc(OC)c1Cl)C2 (racemic) [Compound I-138],0.101 to 0.5,–,–
C=CC(=O)NC1CN(C(C)=O)CC1Nc1ncc2c(n1)N(C)C(=O)N(c1c(Cl)c(OC)cc(OC)c1Cl)C2 (racemic) [Compound I-139],0.101 to 0.5,–,–
C=CC(=O)NC1CN(C2CCN(C)CC2)CC1Nc1ncc2c(n1)N(C)C(=O)N(c1c(Cl)c(OC)cc(OC)c1Cl)C2 (racemic) [Compound I-154],> 1,0.101 to 0.5,–
C=CC(=O)Nc1ccccc1Nc1ncc2c(n1)N(C)C(=O)N(c1cc(OC)cc(OC)c1)C2 [Compound I-5],0.101 to 0.5,< 0.1,–
C=CC(=O)Nc1cc(C(F)(F)F)ccc1Nc1ncc2c(n1)N(Cc1ccccc1)C(=O)N(c1c(Cl)c(OC)cc(OC)c1Cl)C2 [Compound I-6],0.101 to 0.5,–,0.501 to 0.999
C=CC(=O)Nc1cc(N2CCN(CCOC)CC2)ccc1Nc1ncc2c(n1)N(Cc1cccc(NC(=O)CC)c1)C(=O)N(c1cc(OC)cc(OC)c1)C2 [Compound I-9],0.101 to 0.5,–,–
C=CC(=O)Nc1cc(N(C)CCOC)ccc1Nc1ncc2c(n1)N(Cc1ccccc1)C(=O)N(c1cc(OC)cc(OC)c1)C2 [Compound I-13],0.101 to 0.5,–,0.101 to 0.5
C=CC(=O)Nc1cc(N(C)CCOC)ccc1Nc1ncc2c(n1)N(C)C(=O)N(c1cc(OC)cc(OC)c1)C2 [Compound I-21],< 0.1,< 0.1,–
C=CC(=O)Nc1ccccc1Nc1ncc2c(n1)N(Cc1ccc(F)cc1)C(=O)N(c1c(Cl)c(OC)cc(OC)c1Cl)C2 [Compound I-25],0.101 to 0.5,–,0.101 to 0.5
C=CC(=O)Nc1ccccc1Nc1ncc2c(n1)N(Cc1cccc(N)c1)C(=O)N(c1c(Cl)c(OC)cc(OC)c1Cl)C2 [Compound I-26],< 0.1,–,< 0.1
C=CC(=O)Nc1ccccc1Nc1ncc2c(n1)N(CC(O)CO)C(=O)N(c1cc(OC)cc(OC)c1)C2 (centres unmarked) [Compound I-33],> 1,–,–
C=CC(=O)Nc1ccccc1Nc1ncc2c(n1)N(C1CCCN(C(=O)OC(C)(C)C)C1)C(=O)N(c1cc(OC)cc(OC)c1)C2 (centres unmarked) [Compound I-36],0.101 to 0.5,< 0.1,–
C=CC(=O)Nc1cc(C)ccc1Nc1ncc2c(n1)N(C)C(=O)N(c1cc(OC)cc(OC)c1)C2 [Compound I-41],0.101 to 0.5,< 0.1,–
C=CC(=O)Nc1cc(C(F)(F)F)ccc1Nc1ncc2c(n1)N(C)C(=O)N(c1cc(OC)cc(OC)c1)C2 [Compound I-42],< 0.1,< 0.1,–
C=CC(=O)Nc1ccccc1Nc1ncc2c(n1)N(C1CCCNC1)C(=O)N(c1cc(OC)cc(OC)c1)C2 (centres unmarked) [Compound I-43],> 1,< 0.1,–
C=CC(=O)Nc1ccccc1Nc1ncc2c(n1)N(Cc1cccnc1)C(=O)N(c1cc(OC)cc(OC)c1)C2 [Compound I-44],< 0.1,< 0.1,–
C=CC(=O)Nc1ccccc1Nc1ncc2c(n1)N(CC#N)C(=O)N(c1cc(OC)cc(OC)c1)C2 [Compound I-48],0.101 to 0.5,< 0.1,–
C=CC(=O)Nc1ccc(C(F)(F)F)cc1Nc1ncc2c(n1)N(C)C(=O)N(c1cc(OC)cc(OC)c1)C2 [Compound I-50],0.101 to 0.5,< 0.1,–
C=CC(=O)Nc1ccccc1Nc1ncc2c(n1)N(CCOC)C(=O)N(c1cc(OC)cc(OC)c1)C2 [Compound I-59],0.101 to 0.5,< 0.1,–
C=CC(=O)Nc1ccccc1Nc1ncc2c(n1)N(Cc1cscn1)C(=O)N(c1cc(OC)cc(OC)c1)C2 [Compound I-64],0.101 to 0.5,< 0.1,–
C=CC(=O)Nc1ccccc1Nc1ncc2c(n1)N(C)C(=O)N(c1c(Cl)cccc1Cl)C2 [Compound I-83],0.101 to 0.5,0.101 to 0.5,–

Structure (SMILES),EC50 (pFGFR4 in Huh7 cells) [µM],IC50 (FGFR4-WT; [1]) [µM],IC50 (FGFR4-WT; [2]) [µM]
C=CC(=O)Nc1ccccc1Nc1ncc2c(n1)N(Cc1ccnc(N)c1)C(=O)N(c1cc(OC)cc(OC)c1)C2 [Compound I-87],< 0.1,< 0.1,–
C=CC(=O)Nc1ccccc1Nc1ncc2c(n1)N(C1COC1)C(=O)N(c1cc(OC)cc(OC)c1)C2 [Compound I-88],0.101 to 0.5,< 0.1,–
C=CC(=O)Nc1ccccc1Nc1ncc2c(n1)N(Cc1cccc(C(N)=O)c1)C(=O)N(c1cc(OC)cc(OC)c1)C2 [Compound I-97],0.101 to 0.5,< 0.1,–
C=CC(=O)Nc1ccccc1Nc1ncc2c(n1)N(CC1CC1)C(=O)N(c1cc(OC)cc(OC)c1)C2 [Compound I-98],< 0.1,< 0.1,–
C=CC(=O)Nc1ccccc1Nc1ncc2c(n1)N(CC(F)F)C(=O)N(c1cc(OC)cc(OC)c1)C2 [Compound I-99],0.101 to 0.5,< 0.1,–
C=CC(=O)Nc1ccccc1Nc1ncc2c(n1)N(CC1CC1)C(=O)N(c1cc(OC)cc(OC)c1Cl)C2 [Compound I-100],< 0.1,< 0.1,–
C=CC(=O)Nc1ccccc1Nc1ncc2c(n1)N(CCF)C(=O)N(c1cc(OC)cc(OC)c1)C2 [Compound I-102],< 0.1,< 0.1,–
C=CC(=O)Nc1ccccc1Nc1ncc2c(n1)N(CC(F)F)C(=O)N(c1cc(OC)cc(OC)c1Cl)C2 [Compound I-104],< 0.1,< 0.1,–
C=CC(=O)Nc1ccccc1Nc1ncc2c(n1)N(CCF)C(=O)N(c1cc(OC)cc(OC)c1Cl)C2 [Compound I-110],< 0.1,< 0.1,–
C=CC(=O)N[C@H]1CCCC[C@H]1Nc1ncc2c(n1)N(Cc1cscn1)C(=O)N(c1c(Cl)c(OC)cc(OC)c1Cl)C2 [Compound I-114],0.101 to 0.5,–,–
C=CC(=O)NC1CCCCC1Nc1ncc2c(n1)N(CC(F)F)C(=O)N(c1c(F)c(OC)cc(OC)c1F)C2 (centres unmarked) [Compound I-115],0.101 to 0.5,0.101 to 0.5,–
C=CC(=O)Nc1ccccc1Nc1ncc2c(n1)N(CC(F)F)C(=O)N(c1c(F)c(OC)cc(OC)c1F)C2 [Compound I-116],< 0.1,< 0.1,–
C=CC(=O)Nc1ccccc1Nc1ncc2cc(-c3cc(OC)cc(OC)c3)c(N)nc2n1 [Compound I-155],> 1,–,–
C=CC(=O)NC1COCC1Nc1ncc2c(n1)N(Cc1cscn1)C(=O)N(c1c(Cl)c(OC)cc(OC)c1Cl)C2 (centres unmarked) [Compound I-210],< 0.1,–,–
C=CC(=O)NC1COCC1Nc1ncc2c(n1)N(CC1CC1)C(=O)N(c1c(Cl)c(OC)cc(OC)c1Cl)C2 (centres unmarked) [Compound I-212],< 0.1,–,–
C=CC(=O)NC1COCC1Nc1ncc2c(n1)N(Cc1cn[nH]c1)C(=O)N(c1c(Cl)c(OC)cc(OC)c1Cl)C2 (centres unmarked) [Compound I-214],0.101 to 0.5,–,–
C=CC(=O)N[C@H]1CCCC[C@H]1Nc1ncc2c(n1)N(C)C(=O)N(c1c(Cl)c(OC)c(OC)c(OC)c1Cl)C2 [Compound I-221],> 1,–,–
CCC(=O)Nc1ccccc1Nc1ncc2c(n1)N(C)C(=O)N(c1c(Cl)c(OC)cc(OC)c1Cl)C2 [Compound I-235],–,–,0.101 to 0.5
COc1cc(OC)cc(N2Cc3cnc(Nc4ccccc4)nc3N(C)C2=O)c1 [Compound I-237],–,0.101 to 0.5,–
COc1cc(OC)c(Cl)c(N2Cc3cnc(Nc4ccccc4)nc3N(C)C2=O)c1Cl [Compound I-238],< 0.1,–,–
C=CC(=O)Nc1cc(OC)ccc1Nc1ncc2cc(-c3c(Cl)c(OC)cc(OC)c3Cl)c(=O)n(C)c2n1 [Compound I-242],< 0.1,–,–
